From patent US20090099020A1, “Triazole-Based Fungicidal Mixtures” (BADF Aktiengesellschaft, priority 2005, published 2009)

System: Botrytis cinerea
Assay: Activity against the gray mold pathogen Botrytis cinerea in the microtiter test (Botrci)
Type: cell-based
Conditions: single active, day 7 after inoculation
Protocol: The expected efficacies of active compound combinations were determined using Colby's formula (Colby, S. R. “Calculating synergistic and antagonistic responses of herbicide combinations”, Weeds, 15, 20-22, 1967) and compared with the observed efficacies.
E=x+y−x·y/100 • E expected efficacy, expressed in % of the untreated control, when using the mixture of the active compounds A and B at the concentrations a and b • x efficacy, expressed in % of the untreated control, when using the active compound A at the concentration a • y efficacy, expressed in % of the untreated control, when using the active compound B at the concentration b
The active compounds were formulated separately as a stock solution having a concentration of 10 000 ppm in DMSO.
The active compound epoxiconazole was used as a commercial formulation.
Use example No. 1—Activity against the gray mold pathogen Botrytis cinerea in the microtiter test (Botrci)
The stock solution is pipetted onto a microtiter plate (MTP) and diluted to the stated active compound concentration using a malt-based aqueous nutrient medium for fungi. An aqueous spore suspension of Botrytis cinerea was then added. The plates were placed in a water vapor-saturated chamber at temperatures of 18° C. Using an absorption photometer, the MTPs were measured at 405 nm on day 7 after the inoculation. The measured parameters were compared to the growth of the active compound-free control variant and the fungus- and active compound-free blank value to determine the relative growth in % of the pathogens in the individual active compounds.
The visually determined values for the percentage of infected leaf area were initially converted into a mean value and then converted into efficacies in % of the untreated control. An efficacy of 0 means the same degree of infection as in the untreated control, an efficacy of 100 means 0% infection. The expected efficacies for active compound combinations were determined using Colby's formula (Colby, S. R. (Calculating synergistic and antagonistic responses of herbicide combinations”, Weeds, 15, pp. 20-22, 1967) and compared to the observed efficacies.

Row | Compound | Observed effect (%) (0.016 ppm) | Observed effect (%) (0.063 ppm) | Observed effect (%) (0.004 ppm) | Observed effect (%) (0.25 ppm)
1 | Fc1ccc(C2(Cn3cncn3)OC2c2ccccc2Cl)cc1 (stereo not shown) [Epoxiconazole, epoxiconazole] | 15% | 48% |  | 
2 | O=c1c2cc(F)ccc2nc(-n2cncn2)n1-c1ccc(Cl)cc1Cl [Fluquinconazole, fluquinconazole] |  |  | 0% | 0%
